The numbers were not newly measured in article PMC6010143, “Synthesis of new pyridothienopyrimidinone derivatives as Pim-1 inhibitors” (Journal of Enzyme Inhibition and Medicinal Chemistry, 2017), which cites them from elsewhere.

Like-named read-outs stand apart in the source and are kept apart here.

Among the targets are pim-1; pim-2; pim-3.
Settings in all cases: cited from earlier work

For the compound `NC1CCN(c2ccncc2NC(=O)c2ccc(F)c(-c3c(F)cccc3F)n2)CC1O` (centres unmarked) [LGB321], the Ki (in general, the dissociation constant of the complex between target and ligand, obtained from inhibition or displacement) on pim-1 (Figure 1) is 0.001 nM; on pim-2 (Figure 1) it was 0.0021 nM.
As for `CC(C)(O)[C@H]1CC[C@H](Nc2ccc3ncc(-c4cccc(C(F)(F)F)c4)n3n2)CC1` [SGI-9481], the Ki at pim-1 (Figure 1) is 5 nM; at pim-2 (Figure 1) it was 239 nM; on pim-3 (Figure 1), 42 nM.
Take `O=c1[nH]c(CNc2cccc(O)c2)nc2c1sc1ccc(Br)cc12` [VII]: the Ki on pim-1 (Figure 3) is 0.8 nM; at pim-2 (Figure 3) it was 60 nM; at pim-3 (Figure 3) it was 4 nM.
As to `CN(C)Cc1nc2c(sc3ccc(-c4ccc(O)cc4)cc32)c(=O)[nH]1` [VI], the Ki at pim-1 (Figure 3) was 2 nM; at pim-2 (Figure 3), 3 nM; at pim-3 (Figure 3) it was 0.5 nM.
